# Test results reported in article PMC8467576, “Novel Ubiquitin Specific Protease-13 Inhibitors Alleviate Neurodegenerative Pathology” (Metabolites, 2021).
# Legend:
# [1] = system: alpha-synuclein ubiquitination; experiment: Alpha-synuclein ubiquitination in TgA53T mice (IP/WB, co-localization immunostaining); format: in vivo, mouse
# Experimental: Male and female TgA53T mice (15 months old) were treated daily with intraperitoneal injection of DMSO versus 10 mg/kg or 40 mg/kg BK50118-C for 7 days. […] ELISA measurement of alpha-synuclein in the same extracts (Figure 4C) confirmed that human alpha-synuclein was reduced by about 30% (10 mg/kg) and 56% (40 mg/kg), respectively (Figure 4C).
# To ascertain the mechanistic effects of BK50118-C on alpha-synuclein clearance, we performed immunostaining in striatum of TgA53T mice. […] We also performed the staining of tyrosine hydroxylase (TH) in the striatum of TgA53T mice. TH is the enzyme responsible for catalyzing the rate limiting step in synthesis of L-3,4-dihydroxyphenylalanine(L-DOPA) which is a precursor for dopamine (DA). Staining of TH will help to evaluate the status of DA producing neurons in the SN and their terminals in the striatum.
# BK50118-C is one of novel small molecule inhibitors of USP13 synthesized in our laboratory. For BK50118-C treatment, approximately 15 months old (±1 month) male and female TgA53T mice were treated with intraperitoneal injection of vehicle (DMSO) or BK50118-C at the daily dosage of 10 mg/Kg or 40 mg/Kg for 7 days. […]
# Mouse brain tissues were homogenized in 1x STEN buffer, and the soluble fraction was isolated as indicated above. […] The supernatant was recovered and quantified by protein assay, and a total of 300 µg protein was incubated overnight at 4 °C with primary anti-alpha-synuclein (1:200, Thermofisher, AHB0261) mouse antibodies or anti-ubiquitin (1:100) (Thermo Fisher, PA3–16717, Rockford, IL, USA) antibodies in the presence of sepharose G and an IgG control with primary antibodies. […]
# Immunohistochemistry was performed on the 20 µm thick brain sections for evaluation of ubiquitination of alpha-synuclein. […] The optic densitometry of co-localization of ubiquitin with alpha-synuclein was measured using Image J. Tyrosine hydroxylase (TH) is the limiting enzyme in DA synthesis, so probing for TH+ neurons will help to evaluate the status of DA producing neurons in the SN and their terminals in the striatum. […]
# [2] = system: Nissl+ cells; experiment: Nissl staining neuron counts in TgA53T mice; format: in vivo, mouse; conditions: 40 mg/Kg I.P. daily for 7 days, vs DMSO
# Experimental: BK50118-C is one of novel small molecule inhibitors of USP13 synthesized in our laboratory. For BK50118-C treatment, approximately 15 months old (±1 month) male and female TgA53T mice were treated with intraperitoneal injection of vehicle (DMSO) or BK50118-C at the daily dosage of 10 mg/Kg or 40 mg/Kg for 7 days. Animals were age and sex-matched in their respective treatment cohorts. All animals were sacrificed after treatment. All experiments were conducted in full compliance with the recommendations of Georgetown University Animal Care and Use Committee. These experiments were conducted under animal protocol No. 2016-1194 titled, Misfolded Protein Clearance in Neurodegeneration, which was approved by the Georgetown University IACUC. Protocol Information: IACUC Protocol Number: 2016-1194. Protocol Approval Date: 14 September 2020 Expiration Date: 14 September 2023.
# Nissl staining was performed using FD Cresyl Violet Solution™ Regular Strength (FD NeuroTechnologies, Cat PS102-01, Columbia, MD, USA) as per manufacturer’s instructions. Silver staining was performed using FD NeuroSilver™ (FD NeuroTechnologies, Cat PK301,) as per manufacturer’s instructions.
# Suppl Figure S3. BK50118-C improved cell survivals in TgA53T mice. Male and female TgA53T mice were treated with intraperitoneal injection of vehicle or BK50118-C at the daily dosage of 40 mg/Kg for 7 days. […]
# substantia nigra (SN) H) compared to corresponding vehicles A), D) and G), verified […]
# (1 picture or pasted object on this page, not shown here) […]
# by quantification of Nissl+ cells in cortex C), striatum F) and SN I). Asterisk indicates statistic significant difference vs vehicle. * p<0.05 vs vehicle. Two-tailed student’s t test was used for analysis. N=3-4 mice per group. All values presented as Mean±SD.
# [3] = midbrain extracts, 40 mg/kg vs DMSO and 10 mg/kg, 7 days
structure (smiles),measurement,setting,value
"Fc1ccc2nccc(OCc3ccccc3)c2c1 [BK50118-C, 4-benzyloxy-6-fluoroquinoline]",ubiquitination after immunoprecipitation of alpha-synuclein followed by ubiquitin WB,[1]; [3],increased ubiquitination
same,ubiquitination of alpha-synuclein after immunoprecipitation of ubiquitin followed by alpha-synuclein WB,[1]; [3],increased ubiquitination of alpha-synuclein
same,increase in alpha-synuclein-ubiquitin co-localization (optic density),"[1]; striatum, 40 mg/Kg I.P. daily for 7 days, vs DMSO",130%
same,neuron counts (Nissl+ cells),[2]; cortex,significantly increased
same,neuron counts (Nissl+ cells),[2]; striatum,significantly increased
same,neuron counts (Nissl+ cells),[2]; substantia nigra (SN),significantly increased
